Source: PMC9029746, “Discovery of Azaindolin-2-One as a Dual Inhibitor of GSK3β and Tau Aggregation with Potential Neuroprotective Activity” (Pharmaceuticals, 2022)
“Also recorded” adds a separate entry of the source. Read-outs that look alike come from different tables or passages of the source.

How the values were obtained:
[1] = molecular target: T1, human recombinant GSK3β (Homo sapiens, UniProt P49841); assay: GSK3β inhibition assay (GSK3β Kinase Enzyme System, ADP-Glo Kinase Assay); format: biochemical; settings: for inhibition at 10 µM: read-out: percentage inhibition of GSK3β
T1 construct: purchased Promega Corporation, Madison, WI, USA (GSK3β Kinase Enzyme System)
T1 sequence (P49841 whole entry): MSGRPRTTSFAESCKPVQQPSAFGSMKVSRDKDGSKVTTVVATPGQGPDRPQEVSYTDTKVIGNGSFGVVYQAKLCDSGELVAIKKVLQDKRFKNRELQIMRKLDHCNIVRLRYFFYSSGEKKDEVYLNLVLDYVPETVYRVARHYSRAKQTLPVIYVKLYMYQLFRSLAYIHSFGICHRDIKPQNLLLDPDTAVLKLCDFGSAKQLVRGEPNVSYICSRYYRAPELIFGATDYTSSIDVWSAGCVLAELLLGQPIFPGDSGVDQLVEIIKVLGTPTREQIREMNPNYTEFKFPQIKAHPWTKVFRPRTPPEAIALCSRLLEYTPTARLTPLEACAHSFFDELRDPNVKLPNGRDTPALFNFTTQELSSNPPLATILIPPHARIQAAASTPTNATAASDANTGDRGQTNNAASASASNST
Description: Screening of GSK3β inhibition activity for our new library was conducted using the […] luminescence assay to determine how much ATP is reduced after a kinase reaction.
According to the manufacturer’s protocol, the assay was conducted using GSK3β Kinase Enzyme System and ADP-Glo Kinase Assay (Promega Corporation, Madison, WI, USA) in 384-well plates. The kinase reaction was performed at room temperature using 2 ng/μL of human recombinant GSK3β, 0.2 μg/μL of GSK3 substrate ([…] (pS) EDEEE; amino acids 636–661), and 25 μM ATP in 4X kinase buffer containing 50 μM DTT. The compounds were added to enzyme solution and incubated for 2 h at room temperature. Then, kinase activity was quantified using the ADP-Glo Kinase Assay as previously described.

[2] = test system: GSK3β; settings: cited from earlier work
[3] = molecular target: T2, tau 2N4R isoform carrying P301L mutation (Homo sapiens, UniProt P10636, P618L); assay: Tau aggregation inhibition in a cell model of tauopathy (Tau Aggregation Assay Kit, HeLa cells); format: cell-based; settings: for anti-tau aggregation effect: Hela cells, seed+; for inhibitory activity against tau aggregation: 1, 3, 10, and 30 µM overall
T2 construct: host or cells: HeLa cells
T2 sequence (P10636 1-441 isoform P10636-8 P301L): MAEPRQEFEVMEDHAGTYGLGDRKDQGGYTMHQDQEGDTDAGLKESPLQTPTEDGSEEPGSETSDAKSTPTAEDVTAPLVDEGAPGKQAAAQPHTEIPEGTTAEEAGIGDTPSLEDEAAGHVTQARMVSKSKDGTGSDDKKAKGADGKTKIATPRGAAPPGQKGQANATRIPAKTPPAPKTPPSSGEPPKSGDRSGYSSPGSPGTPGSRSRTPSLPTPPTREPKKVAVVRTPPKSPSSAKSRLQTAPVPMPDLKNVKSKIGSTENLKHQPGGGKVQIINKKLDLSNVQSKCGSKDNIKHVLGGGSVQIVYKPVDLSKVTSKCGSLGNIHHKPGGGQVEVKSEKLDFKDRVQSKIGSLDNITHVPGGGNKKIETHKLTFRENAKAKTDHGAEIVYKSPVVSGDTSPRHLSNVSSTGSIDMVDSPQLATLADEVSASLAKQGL
Description: Aggregation of Tau is observed using Hela cells transduced with the expression vector of tau 2N4R isoform carrying P301L mutation and fibrils of tau protein with P301L mutation as seed. We tested the anti-aggregation effects of (E)-2f and 3a at four different concentrations, namely (1 µM, 3 µM, 10 µM, 30 µM), the measurements combined with negative seed (negative control = normal aggregation level), and positive seed (positive control = AD aggregation levels). In other words, seed— and + indicate the absence and presence of fibrils of tau protein with P301L mutation as seed, respectively.
Figure 9 Anti-tau aggregation activity of compounds (E)-2f and 3a at 1, 3, 10, and 30 µM concentrations. (A) Tau proteins were stained with green fluorescence in HeLa cells transfected with the expression vector of tau 2N4R isoform carrying P301L mutation and incubated with the compounds. Microscopic observation was performed, and photos were shown on a 100 µm scale. Seed negative (seed−) and seed positive (seed+) indicate the absence and presence of fibrils of tau protein with P301L mutation, respectively. (B) Relative green spots per area (%) after exposure of Hela cells to compounds (E)-2f and 3a are compared to seed positive (seed+ = 100%). ImageJ counted more than 100 spots in the same area in each sample. *: denotes significant difference from control (seed+) at p < 0.05, **: denotes significant difference from control (seed+) at p < 0.01.
According to the manufacturer’s protocol, the assay was performed using Tau Aggregation Assay Kit (Cosmo Bio, Tokyo, Japan [catalog number: TAU01]). Briefly, HeLa cells were transfected with pCMV-Tau(2N4R)-P301L (20 ng) using Lipofectamine 3000 (ThermoFisher Scientific, Waltham, MA, USA) and treated with F-Tau (RD)-P301L (fibrils of tau protein with P301L mutation as seed, included in the assay kit). Drugs were added after 6 h, and the cells were incubated for 1 day. Next, immunostaining was performed basically as previously described. Tau proteins were stained with green fluorescence. In this staining, a TAU antibody (Proteintech, Rosemont, IL, USA [catalog number: 10274-1-AP]) was used as the first antibody, and goat anti-rabbit IgG (H + L) highly cross-adsorbed secondary antibody, Alexa Fluor 488 ThermoFisher Scientific) was used as the second antibody. An All-in-One Fluorescence Microscope BIOREVO BZ-9000 (Keyence, Osaka, Japan) was used as the microscope. ImageJ counted more than 100 spots in the same area in each sample [40, 41].

[4] = test system: total tau; assay: Western blot analysis of total tau in Hela cells; format: cell-based, human; settings: 10 and 30 µM, 24 h, GAPDH normalization
Description: Western blot analysis was then used to confirm the amount of the total tau in Hela cells used for microscopic observation. The lysate of Hela cells, after incubation with compounds (E)-2f and 3a at 10 and 30 µM concentrations, were analyzed by immunoblotting using the same anti-Tau antibody (Figure S42). ImageJ was used to quantify the total tau at each concentration and compared to the total tau level of Hela cells with positive seed (seed+) alone as a control.
Figure 10 Effect of compounds (E)-2f and 3a on Tau levels. HeLa cells transfected with the expression vector of tau 2N4R isoform carrying P301L mutation and incubated with compounds (E)-2f and 3a at 10 and 30 µM concentrations for 24 h. Then Hela cells were lysed, and the lysates were analyzed by Western blotting. The relative amount of total tau expressed in the total cell lysate of Hela cells of each lane was quantified by ImageJ. The total tau level of Hela cells with positive seed (seed+) alone was calculated from total tau after GAPDH normalization and is presented as Control (1.00).
Western blot analysis was performed by lysing Hela cells in PBS/Laemmli sample buffer (1:1) as described previously. […] Chemiluminescence detected immunoreactivity using ImmunoStar LD (FUJIFILM-Wako, Osaka, Japan).

[5] = test system: A375; assay: MTT assay, cytotoxicity; format: cell-based; settings: Homo sapiens, A-375, 72 h; read-out: IC50 (µM) after 72 h Drug Treatment, A375
Description: (§1) The human cervical carcinoma cell line HeLa, obtained from the American Type Culture Collection (ATCC), was cultured in Dulbecco’s modified Eagle’s medium (DMEM) supplemented with 5% heat-inactivated fetal bovine serum (FBS). The human glioblastoma cell line U251 (obtained from ATCC), colon carcinoma cell line HCT116 [provided by the RIKEN BRC through the National Bio-Resource Project of the MEXT/AMED, Japan (RCB2979)], and human melanoma cell line A375, obtained from ATCC, were cultured in DMEM supplemented with 10% heat-inactivated FBS. The human chronic myelogenous leukemia cell line K562 and human peripheral blood mononuclear cells (PBMC), both cells obtained from ATCC, were cultured in RPMI 1640 supplemented with 10% heat-inactivated FBS described previously.
(§2) Cells were seeded in a 24-well plate, and the compounds were added. After incubation for 3 days, a solution (1.1 mg/mL) of 3-(4,5-dimethylthiazol-2-yl)-2,5-diphenyl-2H-tetrazolium bromide (MTT, from DOJINDO Laboratories, Kumamoto, Japan) was added, and MTT assay was performed as previously described.

[6] = test system: HCT-116; assay: MTT assay, cytotoxicity; format: cell-based; settings: Homo sapiens, HCT-116, 72 h; read-out: IC50 (µM) after 72 h Drug Treatment, HCT-116
Description: as §1, §2

[7] = test system: K562; assay: MTT assay, cytotoxicity; format: cell-based; settings: Homo sapiens, K562, 72 h; read-out: IC50 (µM) after 72 h Drug Treatment, K562
Description: as §1, §2

[8] = test system: U251; assay: MTT assay, cytotoxicity; format: cell-based; settings: Homo sapiens, U-251, 72 h; read-out: IC50 (µM) after 72 h Drug Treatment, U251
Description: as §1, §2

[9] = test system: PBMC; assay: MTT assay, cytotoxicity on normal blood cells; format: cell-based; settings: Homo sapiens, 72 h, read-out: IC50 (µM) after 72 h Drug Treatment, PBMC
Description: as §1, §2

[10] = molecular target: tau fibrils; parameters: method as in PMID 17761424; settings: cited from earlier work
[11] = molecular target: alpha-synuclein (α-syn); parameters: method as in PMID 17761424; settings: cited from earlier work
[12] = molecular target: beta-amyloid (Aβ); parameters: method as in PMID 17761424; settings: cited from earlier work

SMILES: O=C1Nc2cc(F)ccc2/C1=C\c1ccccn1 [(E)-2e, (E)-6-fluoro-3-(pyridin-2-ylmethylene)indolin-2-one]
- inhibition at 10 µM [1]: < 30%
- IC50 ([1]; read-out: IC50 (µM) GSK3β): > 10 µM

SMILES: O=C1NC(=S)S/C1=C\c1cccc(-c2ccc3c(c2)OCO3)n1 [V]
- IC50 [2]: 1.6 µM

SMILES: O=C1Nc2ncccc2/C1=C\c1ccccn1 [(E)-2f, (E)-3-(pyridin-2-ylmethylene)-1,3-dihydro-2H-pyrrolo [2,3-b]pyridin-2-one]
- inhibition at 10 µM [1]: 76.4%
- IC50 ([1]; read-out: IC50 (µM) GSK3β): 1.7 µM
- anti-tau aggregation effect ([3]; 1 µM): no efficacy
- anti-tau aggregation effect ([3]; 3 µM): moderate efficacy
- anti-tau aggregation effect ([3]; 10 µM): significant anti-aggregation effect
- anti-tau aggregation effect ([3]; 30 µM): completely protected Hela cells from tau aggregates
- inhibitory activity against tau aggregation [3]: pronounced tau anti-aggregation effect; also recorded: concentration-dependent inhibitory activity
- total tau level compared to Hela cells with seed+ alone [4]: little or no difference; also recorded: minimal effect
- IC50 [5]: 14 µM
- IC50 [6]: 12.8 µM
- IC50 [7]: 13.8 µM
- IC50 [8]: 28.2 µM
- IC50 [9]: > 300 µM

SMILES: CN(C)c1ccc(/C=C2/C(=O)Nc3ccccc32)cc1 [VII]
- Ki [10]: 95 nM
- Ki [11]: 490 nM
- Ki [12]: 140 nM

SMILES: Clc1cc(-c2c[nH]c3ncccc23)cc(NC2CCCCC2)n1 [Native ligand]
- Ki [2]: 0.058 µM

SMILES: COc1ccc2c(c1)c(/C=C1\SC(=O)NC1=O)cn2C [IV]
- IC50 [2]: 0.89 µM

SMILES: CN(C)c1ccnc(/C=C2/C(=O)Nc3ncccc32)c1 [(E)-3c]
- IC50 ([1]; read-out: IC50 (µM) GSK3β): 3.2 µM

SMILES: O=C1Nc2cc(Cl)ccc2/C1=C\c1ccccn1 [(E)-2c, (E)-6-chloro-3-(pyridin-2-ylmethylene)indolin-2-one]
- inhibition at 10 µM [1]: 45%
- IC50 ([1]; read-out: IC50 (µM) GSK3β): > 10 µM

SMILES: CCN(CC)c1ccc(/C=C2/C(=O)Nc3ncccc32)cc1 [(E)-3b]
- IC50 ([1]; read-out: IC50 (µM) GSK3β): 3 µM

SMILES: O=C1Nc2ccccc2/C1=C\c1ccccn1 [(E)-2a, (E)-3-(pyridin-2-ylmethylene)indolin-2-one]
- IC50 [1]: > 10 µM
- IC50 [2]: 0.00416 µM

SMILES: O=C1Nc2ncccc2/C1=C/c1ccncc1 [(Z)-3d]
- IC50 ([1]; read-out: IC50 (µM) GSK3β): 5.9 µM

SMILES: O=C1Nc2ccc(F)cc2/C1=C\c1ccccn1 [(E)-2d, (E)-5-fluoro-3-(pyridin-2-ylmethylene)indolin-2-one]
- inhibition at 10 µM [1]: < 30%
- IC50 ([1]; read-out: IC50 (µM) GSK3β): > 10 µM

SMILES: O=C1Nc2ncccc2/C1=C\c1ccncc1 [(E)-3d]
- IC50 ([1]; read-out: IC50 (µM) GSK3β): 5.9 µM

SMILES: CCN(CC)c1ccc(/C=C2\C(=O)Nc3ncccc32)cc1 [(Z)-3b]
- IC50 ([1]; read-out: IC50 (µM) GSK3β): 3 µM

SMILES: O=C1Nc2ccc(Cl)cc2/C1=C\c1ccccn1 [(E)-2b, (E)-5-chloro-3-(pyridin-2-ylmethylene)indolin-2-one]
- IC50 ([1]; read-out: IC50 (µM) GSK3β): > 10 µM

SMILES: CN(C)c1ccc(C=C2C(=O)Nc3ncccc32)cc1 (mixture of isomers) [Compound 3a, (E/Z)-3-(4-(dimethylamino)benzylidene)-1,3-dihydro-2H-pyrrolo [2,3-b]pyridin-2-one]
- anti-tau aggregation effect ([3]; 30 µM): completely protected Hela cells from tau aggregates
- inhibitory activity against tau aggregation [3]: concentration-dependent inhibitory activity
- total tau level compared to Hela cells with seed+ alone [4]: little or no difference; also recorded: minimal effect
- IC50 [5]: > 100 µM
- IC50 [6]: 9.8 µM
- IC50 [7]: 4.7 µM
- IC50 [8]: 10.3 µM
- IC50 [9]: 94.5 µM

SMILES: CN(C)c1ccc(/C=C2\C(=O)Nc3ncccc32)cc1 [(Z)-3a]
- IC50 ([1]; read-out: IC50 (µM) GSK3β): 1.9 µM

SMILES: Cn1cc(-c2[nH][nH]c(=O)c2-c2cn(C)c3ccccc23)c2ccccc21 [III]
- IC50 ([2]; in vitro): 0.034 µM
